From article PMC6208650

Assay: on-resin lactamisation, Asp side-chain COOH (C-terminal residue, anchored via Rink amide) + alpha-NH2 of N-terminal Dap(Boc); HATU/DIEA 1.05:2.1 equiv, overnight; then TFA cleavage
Conditions: NMP, 57.0 mM; for ring closure, product found: scale: 1 = cyclic product is largest ESI-MS signal, 0 = linear; for ring closure, conversion by HPLC: scale: % crude HPLC purity, 320 nm area of tallest peak or peak cluster
[1] = from CC(C)(C)OC(=O)NC[C@H](N)C(=O)N[C@@H](CNC(=O)c1cnc2ccccc2n1)C(=O)NCC(=O)N[C@@H](CNC(=O)c1cnc2ccccc2n1)C(=O)N[C@@H](CNC(=O)c1cnc2ccccc2n1)C(=O)NCC(=O)N[C@@H](CC(=O)O)C(N)=O, 22-membered ring
[2] = from CC(C)(C)OC(=O)NC[C@H](N)C(=O)N[C@@H](CNC(=O)c1cnc2ccccc2n1)C(=O)NCC(=O)NCC(=O)N[C@@H](CNC(=O)c1cnc2ccccc2n1)C(=O)N[C@@H](CNC(=O)c1cnc2ccccc2n1)C(=O)N[C@@H](CC(=O)O)C(N)=O, 22-membered ring
[3] = from CC(C)(C)OC(=O)NC[C@H](N)C(=O)NCC(=O)N[C@@H](CNC(=O)c1cnc2ccccc2n1)C(=O)NCC(=O)NCC(=O)N[C@@H](CNC(=O)c1cnc2ccccc2n1)C(=O)N[C@@H](CC(=O)O)C(N)=O, 22-membered ring
[4] = from CC(C)(C)OC(=O)NC[C@H](N)C(=O)NCC(=O)NCC(=O)NCC(=O)N[C@@H](CNC(=O)c1cnc2ccccc2n1)C(=O)N[C@@H](CNC(=O)c1cnc2ccccc2n1)C(=O)N[C@@H](CC(=O)O)C(N)=O, 22-membered ring
[5] = from CC(C)(C)OC(=O)NC[C@H](N)C(=O)NCC(=O)NCC(=O)N[C@@H](CNC(=O)c1cnc2ccccc2n1)C(=O)NCC(=O)N[C@@H](CNC(=O)c1cnc2ccccc2n1)C(=O)N[C@@H](CC(=O)O)C(N)=O, 22-membered ring
[6] = from CC(C)(C)OC(=O)NC[C@H](N)C(=O)N[C@@H](CNC(=O)c1cnc2ccccc2n1)C(=O)NCC(=O)N[C@@H](CNC(=O)c1cnc2ccccc2n1)C(=O)NCC(=O)N[C@@H](CNC(=O)c1cnc2ccccc2n1)C(=O)N[C@@H](CC(=O)O)C(N)=O, 22-membered ring
[7] = from CC(C)(C)OC(=O)NC[C@H](N)C(=O)N[C@@H](CNC(=O)c1cnc2ccccc2n1)C(=O)NCC(=O)NCC(=O)NCC(=O)N[C@@H](CNC(=O)c1cnc2ccccc2n1)C(=O)N[C@@H](CC(=O)O)C(N)=O, 22-membered ring
[8] = from CC(C)(C)OC(=O)NC[C@H](N)C(=O)NCC(=O)N[C@@H](CNC(=O)c1cnc2ccccc2n1)C(=O)N[C@@H](CNC(=O)c1cnc2ccccc2n1)C(=O)NCC(=O)NCC(=O)N[C@@H](CC(=O)O)C(N)=O, 22-membered ring
[9] = from CC(C)(C)OC(=O)NC[C@H](N)C(=O)N[C@@H](CNC(=O)c1cnc2ccccc2n1)C(=O)N[C@@H](CNC(=O)c1cnc2ccccc2n1)C(=O)NCC(=O)N[C@@H](CNC(=O)c1cnc2ccccc2n1)C(=O)NCC(=O)N[C@@H](CC(=O)O)C(N)=O, 22-membered ring
[10] = from CC(C)(C)OC(=O)NC[C@H](N)C(=O)N[C@@H](CNC(=O)c1cnc2ccccc2n1)C(=O)N[C@@H](CNC(=O)c1cnc2ccccc2n1)C(=O)N[C@@H](CNC(=O)c1cnc2ccccc2n1)C(=O)NCC(=O)NCC(=O)N[C@@H](CC(=O)O)C(N)=O, 22-membered ring

With `NC[C@@H]1NC(=O)C[C@@H](C(N)=O)NC(=O)CNC(=O)[C@H](CNC(=O)c2cnc3ccccc3n2)NC(=O)[C@H](CNC(=O)c2cnc3ccccc3n2)NC(=O)CNC(=O)[C@H](CNC(=O)c2cnc3ccccc3n2)NC1=O` the ring closure, product found [1] was 1 and the ring closure, conversion by HPLC [1] was 81.

`NC[C@@H]1NC(=O)C[C@@H](C(N)=O)NC(=O)CNC(=O)[C@H](CNC(=O)c2cnc3ccccc3n2)NC(=O)CNC(=O)[C@H](CNC(=O)c2cnc3ccccc3n2)NC1=O` [H-Dap(Boc)-Dap(Qxc)-Gly-Dap(Qxc)-Gly-Asp(OH)-NH-Rink resin] showed a ring closure, product found (from CC(C)(C)OC(=O)NC[C@H](N)C(=O)N[C@@H](CNC(=O)c1cnc2ccccc2n1)C(=O)NCC(=O)N[C@@H](CNC(=O)c1cnc2ccccc2n1)C(=O)NCC(=O)N[C@@H](CC(=O)O)C(N)=O, 19-membered ring) of 1.

In the case of `NC[C@@H]1NC(=O)C[C@@H](C(N)=O)NC(=O)[C@H](CNC(=O)c2cnc3ccccc3n2)NC(=O)[C@H](CNC(=O)c2cnc3ccccc3n2)NC(=O)CNC(=O)CNC(=O)[C@H](CNC(=O)c2cnc3ccccc3n2)NC1=O`, the ring closure, product found [2] was 0 and the ring closure, conversion by HPLC [2] was < 30.

Work on `NC[C@@H]1NC(=O)C[C@@H](C(N)=O)NC(=O)[C@H](CNC(=O)c2cnc3ccccc3n2)NC(=O)CNC(=O)CNC(=O)[C@H](CNC(=O)c2cnc3ccccc3n2)NC(=O)CNC1=O` yielded a ring closure, product found [3] of 1 and a ring closure, conversion by HPLC [3] of 56.

Work on `NC[C@@H]1NC(=O)C[C@@H](C(N)=O)NC(=O)[C@H](CNC(=O)c2cnc3ccccc3n2)NC(=O)[C@H](CNC(=O)c2cnc3ccccc3n2)NC(=O)CNC(=O)CNC(=O)CNC1=O` yielded a ring closure, product found [4] of 1 and a ring closure, conversion by HPLC [4] of 75.

In the case of `NC[C@@H]1NC(=O)C[C@@H](C(N)=O)NC(=O)[C@H](CNC(=O)c2cnc3ccccc3n2)NC(=O)CNC(=O)[C@H](CNC(=O)c2cnc3ccccc3n2)NC(=O)CNC(=O)CNC1=O`, the ring closure, product found [5] was 1 and the ring closure, conversion by HPLC [5] was 76.

`NC[C@@H]1NC(=O)C[C@@H](C(N)=O)NC(=O)[C@H](CNC(=O)c2cnc3ccccc3n2)NC(=O)CNC(=O)[C@H](CNC(=O)c2cnc3ccccc3n2)NC(=O)CNC(=O)[C@H](CNC(=O)c2cnc3ccccc3n2)NC1=O` showed a ring closure, product found [6] of 1 and a ring closure, conversion by HPLC [6] of 24.

With `NC[C@@H]1NC(=O)C[C@@H](C(N)=O)NC(=O)[C@H](CNC(=O)c2cnc3ccccc3n2)NC(=O)CNC(=O)CNC(=O)CNC(=O)[C@H](CNC(=O)c2cnc3ccccc3n2)NC1=O` the ring closure, product found [7] was 1 and the ring closure, conversion by HPLC [7] was 64.

In the case of `NC[C@@H]1NC(=O)C[C@@H](C(N)=O)NC(=O)CNC(=O)CNC(=O)[C@H](CNC(=O)c2cnc3ccccc3n2)NC(=O)[C@H](CNC(=O)c2cnc3ccccc3n2)NC(=O)CNC1=O`, the ring closure, product found [8] was 1 and the ring closure, conversion by HPLC [8] was 69.

With `NC[C@@H]1NC(=O)C[C@@H](C(N)=O)NC(=O)CNC(=O)[C@H](CNC(=O)c2cnc3ccccc3n2)NC(=O)CNC(=O)[C@H](CNC(=O)c2cnc3ccccc3n2)NC(=O)[C@H](CNC(=O)c2cnc3ccccc3n2)NC1=O` the ring closure, product found [9] was 1 and the ring closure, conversion by HPLC [9] was 49.

With `NC[C@@H]1NC(=O)C[C@@H](C(N)=O)NC(=O)CNC(=O)CNC(=O)[C@H](CNC(=O)c2cnc3ccccc3n2)NC(=O)[C@H](CNC(=O)c2cnc3ccccc3n2)NC(=O)[C@H](CNC(=O)c2cnc3ccccc3n2)NC1=O` the ring closure, product found [10] was 1 and the ring closure, conversion by HPLC [10] was 25.
